Test results from publication PMC10740580, “Benzothiazole-Phthalimide Hybrids as Anti-Breast Cancer and Antimicrobial Agents” (Antibiotics, 2023).
≈ marks a conversion by molar mass, not a printed value.

Legend:
Assay type in all cases: cell-based
[1] = tested on: Staphylococcus aureus 25923; test: Broth microdilution, S. aureus ATCC 25923; conditions: 37 °C; for MIC: Staphylococcus aureus, 25923, 24 h
Description: (§1) Compounds 3a–h were examined in accordance with the Clinical Laboratory Standards Institute (CLSI) recommendations, by means of the broth microdilution method, against gram-positive bacteria (Staphylococcus aureus 25923, Staphylococcus aureus 29213, Staphylococcus aureus 43300, Enterococcus faecalis 29212) and gram-negative bacteria (Escherichia coli 25922, Klebsiella pneumoniae 13883, Pseudomonas aeruginosa 27853) belonging to the ATCC collection, using levofloxacin as a reference drug. Table 3 lists the results, expressed as MIC (µg/mL). […] The lack of activity observed for compound 3d could be conceivably due to its poor solubility in the culture medium containing the inoculum.
(§2) Following the recommendations of the CLSI (Clinical and Laboratory Standards Institute, 2012), the broth microdilution method was used to determine the in vitro minimum inhibitory concentrations (MICs, µg/mL).. The concentration of the investigated compounds was set to its highest value to create stock solutions. Then, the stock solutions were diluted 1:10 with Cation-Adjusted Mueller Hinton Broth (Oxoid, Milan, Italy). After that, a series of concentrations from 512 µg/mL to […] were obtained in the wells by performing two-fold serial dilutions in the appropriate test medium. The diluent used to create the stock solution was 100% DMSO. We used the following bacterial strains from the ATCC collection that were available as freeze-dried discs: gram-positive strains such as S. aureus ATCC 25923, 29213, and 43300, and E. faecalis ATCC 29212, and gram-negative ones such as E. coli ATCC 25922, K. pneuomoniae ATCC 13883, and P. aeruginosa ATCC 27853. To preserve the purity of cultures and to allow their reproducibility, cryovials of all microbial strains were set up in the medium and stored at −80 °C. Mueller Hinton Broth (MHB) was used to prepare pre-cultures of each bacterial strain, which were then incubated for 3–5 h at 37 °C. In accordance with CLSI procedure M7-A9, the turbidity of the bacterial cell suspension was calibrated to 0.5 McFarland Standard using a spectrophotometric approach (OD625 nm 0.08–0.10). The standardized suspension was then further diluted (1:100) with MHB to reach 1–2 × 10^6 CFU/mL. A 200 µL aliquot of the final inoculum was inserted into each well. As a control for growth, several wells containing only inoculated broth were prepared. The plates were incubated at 37 °C for 24 h, and the MIC values were calculated as the lowest concentration of compounds at which there was no optically detectable bacteria growth. Each experiment was carried out in duplicate and repeated twice to determine the MICs. Levofloxacin served as the study’s standard reference antibiotic. Additionally, the antibacterial activity of DMSO alone (used as a diluent for the investigated compounds) was examined; therefore, volumes of this solvent with a concentration of less than 5% were utilized throughout the experimentation.

[2] = tested on: Staphylococcus aureus 29213; test: Broth microdilution, S. aureus ATCC 29213; conditions: 24 h, 37 °C
Description: as §1, §2

Candida glabrata 15126 = test: Antifungal microdilution, C. glabrata ATCC 15126; conditions: Nakaseomyces glabratus, microdilution CLSI M27-A3, 48 h, 37 °C, read-out: MIC C.g. 15126
Protocol: In accordance with CLSI guidelines, compounds 3a–h were tested against a variety of fungal strains (Candida albicans 10231, Candida albicans 90028, Candida glabrata 15126, and Candida parapsilosis 22019) belonging to the ATCC collection. Amphotericin B was utilized as a reference drug. A similar trend of results, or even better than that obtained against bacteria, was assessed against fungal strains. […] Also, in this case, compound 3h emerged as the best of the series, with MICs of 16 μg/mL against Candida glabrata and Candida parapsilosis strains and 32 μg/mL against Candida albicans strains.
A microdilution technique described by the Clinical and Laboratory Standards Institute (CLSI, M27-A3) was used to assess the antifungal activity. The following fungal strains, belonging to the ATCC collection and available as freeze-dried discs, were used: C. albicans ATCC 10231, C. albicans ATCC 90028, C. glabrata ATCC 15126, and C. parapsilosis ATCC 22019. Stock solutions were prepared and preserved with purity as previously described for the antibacterial studies. Each yeast strain’s pre-cultures were made in Sabouraud broth (SAB) and allowed to grow until they stopped at 37 °C. By using a spectrophotometric technique (530 nm, range 0.12–0.15), the turbidity of the yeast stock suspension was calibrated to 0.5 McFarland Standard. Next, the standardized suspension was diluted first at 1:50 with SAB and then at 1:20 in the same medium to have […]. A total of 100 µL of inoculum was seeded into each well. As a control for growth, several wells containing only inoculated broth were prepared. The plates were incubated for 48 h at 37 °C, and the MIC values were calculated as the final well with no fungal growth. […] MIC values were observed based on the absence of fungal growth in the final well. The MICs were calculated by conducting the antifungal test three times in duplicate. As a control, amphotericin B was used.

Escherichia coli 25922 = test: Broth microdilution, E. coli ATCC 25922; conditions: 24 h, 37 °C
Description: as §1, §2

[3] = tested on: Staphylococcus aureus 43300; test: Broth microdilution, S. aureus ATCC 43300; conditions: 24 h, 37 °C, methicillin-resistant
Description: as §1, §2

| SMILES | MIC [1] | MIC [2] | MIC (Candida glabrata 15126) | MIC (Escherichia coli 25922) | MIC [3] | MIC S.a. 25923 ([1]; 24 h) |
| --- | --- | --- | --- | --- | --- | --- |
| O=C1c2ccccc2C(=O)N1c1nc2ccccc2s1 [3a, 2-(1,3-benzothiazol-2-yl)-1H-isoindole-1,3(2H)-dione] | 64 µg/mL (≈ 228 µM) | 64 µg/mL (≈ 228 µM) | 32 µg/mL (≈ 114 µM) | 64 µg/mL (≈ 228 µM) | 64 µg/mL (≈ 228 µM) | – |
| COc1cc2nc(N3C(=O)c4ccccc4C3=O)sc2cc1OC [3f, 2-[5,6-Dimethoxy-1,3-benzothiazol-2-yl]-1H-isoindole-1,3(2H)-dione] | 32 µg/mL (≈ 94 µM) | 64 µg/mL (≈ 188 µM) | 32 µg/mL (≈ 94 µM) | 32 µg/mL (≈ 94 µM) | 32 µg/mL (≈ 94 µM) | – |
| O=C1c2ccccc2C(=O)N1c1nc2ccc(O)cc2s1 [3g, 2-[6-Hydroxy-1,3-benzothiazol-2-yl]-1H-isoindole-1,3(2H)-dione] | 32 µg/mL (≈ 108 µM) | 64 µg/mL (≈ 216 µM) | 32 µg/mL (≈ 108 µM) | 64 µg/mL (≈ 216 µM) | 32 µg/mL (≈ 108 µM) | – |
| O=C1c2ccccc2C(=O)N1c1nc2ccc(Oc3ccccc3)cc2s1 [3h, 2-[6-Phenoxy-1,3-benzothiazol-2-yl]-1H-isoindole-1,3(2H)-dione] | 16 µg/mL (≈ 43 µM) | 32 µg/mL (≈ 85.9 µM) | 16 µg/mL (≈ 43 µM) | 32 µg/mL (≈ 85.9 µM) | 32 µg/mL (≈ 85.9 µM) | 16 µg/mL (≈ 43 µM) |

Further lines, with some results ahead:

| MIC [1] | MIC [2] | MIC (Candida glabrata 15126) | MIC (Escherichia coli 25922) | MIC [3] | SMILES | MIC S.a. 25923 ([1]; 24 h) |
| --- | --- | --- | --- | --- | --- | --- |
| 64 µg/mL (≈ 215 µM) | 64 µg/mL (≈ 215 µM) | 32 µg/mL (≈ 107 µM) | 64 µg/mL (≈ 215 µM) | 64 µg/mL (≈ 215 µM) | O=C1c2ccccc2C(=O)N1c1nc2ccc(F)cc2s1 [3b, 2-(6-Fluoro-1,3-benzothiazol-2-yl)-1H-isoindole-1,3(2H)-dione] | – |
| 128 µg/mL (≈ 367 µM) | 128 µg/mL (≈ 367 µM) | 64 µg/mL (≈ 184 µM) | 128 µg/mL (≈ 367 µM) | 64 µg/mL (≈ 184 µM) | O=C1c2ccccc2C(=O)N1c1nc2ccc(C(F)(F)F)cc2s1 [3c, 2-[6-Trifluoromethyl-1,3-benzothiazol-2-yl]-1H-isoindole-1,3(2H)-dione] | – |
| > 512 µg/mL | > 512 µg/mL | > 512 µg/mL | > 512 µg/mL | > 512 µg/mL | Cc1ccc2nc(N3C(=O)c4ccccc4C3=O)sc2c1 [3d, 2-[6-Methyl-1,3-benzothiazol-2-yl]-1H-isoindole-1,3(2H)-dione] | – |
| 32 µg/mL (≈ 103 µM) | 64 µg/mL (≈ 206 µM) | 64 µg/mL (≈ 206 µM) | 64 µg/mL (≈ 206 µM) | 32 µg/mL (≈ 103 µM) | COc1ccc2nc(N3C(=O)c4ccccc4C3=O)sc2c1 [3e, 2-[6-Methoxy-1,3-benzothiazol-2-yl]-1H-isoindole-1,3(2H)-dione] | – |
